Experimental data from ChEMBL document CHEMBL1154949, “2-Amino-aryl-7-aryl-benzoxazoles as potent, selective and orally available JAK2 inhibitors” (Bioorg Med Chem Lett, 2010).

Key:
[1] = target: Tyrosine-protein kinase JAK2 (Homo sapiens, UniProt O60674); assay: Inhibition of GST-tagged JAK2 assessed as inhibition of biotinylated JAK3tide peptide phosphorylation after 60 mins by caliper mobility shift assay
[2] = target: Tyrosine-protein kinase JAK1 (Homo sapiens, UniProt P23458); assay: Inhibition of GST-tagged JAK1 assessed as inhibition of biotinylated IRS1 substrate phosphorylation after 60 mins by caliper mobility shift assay
[3] = target: T1, Tyrosine-protein kinase JAK3 (Homo sapiens, UniProt P52333); assay: Inhibition of GST-tagged JAK3 assessed as inhibition of biotinylated JAK3tide peptide phosphorylation after 60 mins by caliper mobility shift assay
T1 sequence (P52333 whole entry): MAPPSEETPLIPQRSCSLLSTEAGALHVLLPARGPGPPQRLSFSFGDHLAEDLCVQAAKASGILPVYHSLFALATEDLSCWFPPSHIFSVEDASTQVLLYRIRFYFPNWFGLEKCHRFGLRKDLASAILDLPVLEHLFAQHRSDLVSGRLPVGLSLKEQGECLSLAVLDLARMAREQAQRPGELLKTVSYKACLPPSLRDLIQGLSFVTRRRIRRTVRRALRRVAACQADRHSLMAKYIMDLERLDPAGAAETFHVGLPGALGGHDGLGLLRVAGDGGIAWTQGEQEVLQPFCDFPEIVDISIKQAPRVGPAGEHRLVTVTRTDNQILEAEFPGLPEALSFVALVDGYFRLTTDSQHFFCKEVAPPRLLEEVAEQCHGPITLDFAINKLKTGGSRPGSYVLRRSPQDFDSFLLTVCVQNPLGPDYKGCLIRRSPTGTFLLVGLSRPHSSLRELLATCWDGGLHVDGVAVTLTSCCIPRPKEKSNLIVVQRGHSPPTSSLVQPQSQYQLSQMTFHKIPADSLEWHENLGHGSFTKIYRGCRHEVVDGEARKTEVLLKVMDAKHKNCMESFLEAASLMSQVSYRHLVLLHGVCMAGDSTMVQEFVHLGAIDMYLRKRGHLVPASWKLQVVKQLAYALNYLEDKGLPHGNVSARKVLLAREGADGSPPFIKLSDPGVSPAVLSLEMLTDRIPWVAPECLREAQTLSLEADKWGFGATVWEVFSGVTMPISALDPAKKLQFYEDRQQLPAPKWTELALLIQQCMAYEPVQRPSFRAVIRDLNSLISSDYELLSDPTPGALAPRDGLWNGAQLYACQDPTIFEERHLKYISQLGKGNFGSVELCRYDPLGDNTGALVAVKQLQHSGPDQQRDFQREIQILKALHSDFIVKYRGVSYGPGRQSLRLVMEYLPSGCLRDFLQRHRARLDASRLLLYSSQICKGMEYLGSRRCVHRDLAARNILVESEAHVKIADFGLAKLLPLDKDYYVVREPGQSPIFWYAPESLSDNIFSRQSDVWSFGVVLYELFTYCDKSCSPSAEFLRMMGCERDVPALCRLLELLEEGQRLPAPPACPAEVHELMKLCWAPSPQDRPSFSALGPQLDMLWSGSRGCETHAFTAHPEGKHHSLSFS

[4] = target: Non-receptor tyrosine-protein kinase TYK2 (Homo sapiens, UniProt P29597); assay: Inhibition of GST-tagged TYK2 assessed as inhibition of biotinylated IRS1 substrate phosphorylation after 60 mins by caliper mobility shift assay
[5] = Antiproliferative activity against human SET2 cells harboring JAK2 V617F mutant after 72 hrs by […]; type: functional; conditions: SET-2, 72 h
[6] = Clearance in rat at 0.5 ml/kg, iv; type: ADME, organism-based; conditions: in vivo
[7] = Volume of distribution at steady state in rat at 0.5 ml/kg, iv; type: ADME, organism-based; conditions: in vivo, read-out: Vdss
[8] = Terminal half life in rat at 0.5 ml/kg, iv; type: ADME, organism-based; conditions: in vivo
[9] = tested on: Rattus norvegicus; assay: Dose normalized AUC in rat at 1 mg/kg, iv; type: ADME, organism-based; set-up: dose 1 mg/kg, route intravenous; conditions: in vivo
[10] = tested on: Rattus norvegicus; assay: Dose normalized AUC in rat at 1 mg/kg, po; type: ADME, organism-based; set-up: dose 1 mg/kg, route oral; conditions: in vivo
[11] = Tmax in rat at 2.5 ml/kg, po; type: ADME, organism-based; conditions: in vivo
[12] = Cmax in rat at 2.5 ml/kg, po; type: ADME, organism-based; set-up: dose 2.5 ml/kg, route oral; conditions: in vivo
[13] = Oral bioavailability in rat at 2.5 ml/kg; type: ADME, organism-based; conditions: in vivo

Chain of Non-receptor tyrosine-protein kinase TYK2 (P29597 whole entry): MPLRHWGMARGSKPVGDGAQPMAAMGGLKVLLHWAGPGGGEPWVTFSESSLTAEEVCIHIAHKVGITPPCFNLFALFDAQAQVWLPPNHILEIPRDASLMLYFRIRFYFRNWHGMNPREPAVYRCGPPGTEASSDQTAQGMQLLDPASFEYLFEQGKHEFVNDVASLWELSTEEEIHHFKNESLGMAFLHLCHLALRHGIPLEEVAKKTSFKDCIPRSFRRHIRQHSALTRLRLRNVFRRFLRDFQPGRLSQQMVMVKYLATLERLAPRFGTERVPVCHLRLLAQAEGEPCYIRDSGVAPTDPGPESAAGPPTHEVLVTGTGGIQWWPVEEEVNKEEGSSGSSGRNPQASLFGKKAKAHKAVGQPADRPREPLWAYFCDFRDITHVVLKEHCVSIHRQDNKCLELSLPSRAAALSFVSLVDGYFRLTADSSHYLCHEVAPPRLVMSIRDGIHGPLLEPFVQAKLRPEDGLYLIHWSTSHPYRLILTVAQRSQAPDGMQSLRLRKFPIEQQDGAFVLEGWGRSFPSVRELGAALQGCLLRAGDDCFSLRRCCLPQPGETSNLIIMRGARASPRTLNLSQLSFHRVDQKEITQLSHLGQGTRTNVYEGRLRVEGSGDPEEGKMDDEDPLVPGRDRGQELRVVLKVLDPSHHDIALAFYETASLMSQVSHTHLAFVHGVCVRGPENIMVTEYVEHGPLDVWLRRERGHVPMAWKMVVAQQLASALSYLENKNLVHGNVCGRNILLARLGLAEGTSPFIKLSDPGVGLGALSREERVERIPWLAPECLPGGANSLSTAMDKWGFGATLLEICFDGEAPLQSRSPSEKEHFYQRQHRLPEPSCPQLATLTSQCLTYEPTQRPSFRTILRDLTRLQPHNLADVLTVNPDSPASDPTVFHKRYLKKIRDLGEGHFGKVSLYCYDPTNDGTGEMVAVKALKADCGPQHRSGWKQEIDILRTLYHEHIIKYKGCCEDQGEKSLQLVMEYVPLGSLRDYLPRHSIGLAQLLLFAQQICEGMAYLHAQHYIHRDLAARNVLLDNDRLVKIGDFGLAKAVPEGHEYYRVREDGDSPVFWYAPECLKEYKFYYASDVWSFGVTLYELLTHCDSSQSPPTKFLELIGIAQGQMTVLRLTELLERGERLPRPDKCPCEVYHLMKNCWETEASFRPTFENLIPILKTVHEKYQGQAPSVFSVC
Chain of Tyrosine-protein kinase JAK2 (O60674 whole entry): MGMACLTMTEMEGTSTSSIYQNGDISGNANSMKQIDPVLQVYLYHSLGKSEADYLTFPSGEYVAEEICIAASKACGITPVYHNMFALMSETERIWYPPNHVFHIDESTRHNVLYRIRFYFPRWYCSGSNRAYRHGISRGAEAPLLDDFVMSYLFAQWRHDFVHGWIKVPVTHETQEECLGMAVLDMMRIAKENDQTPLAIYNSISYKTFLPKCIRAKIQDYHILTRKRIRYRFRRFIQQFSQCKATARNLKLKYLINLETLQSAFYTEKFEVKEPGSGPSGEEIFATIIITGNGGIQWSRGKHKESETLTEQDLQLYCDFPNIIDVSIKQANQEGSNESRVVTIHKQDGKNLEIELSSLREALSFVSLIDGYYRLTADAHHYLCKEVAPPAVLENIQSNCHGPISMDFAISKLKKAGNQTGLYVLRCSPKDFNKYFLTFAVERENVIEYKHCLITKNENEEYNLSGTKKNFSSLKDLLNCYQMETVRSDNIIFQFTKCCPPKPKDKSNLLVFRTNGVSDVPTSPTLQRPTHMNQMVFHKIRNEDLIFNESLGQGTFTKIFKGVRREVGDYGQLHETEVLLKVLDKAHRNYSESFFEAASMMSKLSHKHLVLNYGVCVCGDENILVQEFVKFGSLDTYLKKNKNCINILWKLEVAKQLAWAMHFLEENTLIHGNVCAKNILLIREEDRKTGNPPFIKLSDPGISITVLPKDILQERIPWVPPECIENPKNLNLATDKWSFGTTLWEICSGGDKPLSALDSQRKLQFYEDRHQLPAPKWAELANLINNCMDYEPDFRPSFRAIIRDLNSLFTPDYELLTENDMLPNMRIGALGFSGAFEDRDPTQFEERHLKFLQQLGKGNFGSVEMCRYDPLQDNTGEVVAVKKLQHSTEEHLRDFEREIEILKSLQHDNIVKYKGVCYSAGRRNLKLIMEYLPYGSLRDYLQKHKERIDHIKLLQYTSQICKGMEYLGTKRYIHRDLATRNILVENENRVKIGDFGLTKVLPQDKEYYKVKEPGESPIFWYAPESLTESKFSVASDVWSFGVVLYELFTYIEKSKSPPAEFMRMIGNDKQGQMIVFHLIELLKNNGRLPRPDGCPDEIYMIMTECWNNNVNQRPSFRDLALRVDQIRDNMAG
Chain of Tyrosine-protein kinase JAK1 (P23458 whole entry): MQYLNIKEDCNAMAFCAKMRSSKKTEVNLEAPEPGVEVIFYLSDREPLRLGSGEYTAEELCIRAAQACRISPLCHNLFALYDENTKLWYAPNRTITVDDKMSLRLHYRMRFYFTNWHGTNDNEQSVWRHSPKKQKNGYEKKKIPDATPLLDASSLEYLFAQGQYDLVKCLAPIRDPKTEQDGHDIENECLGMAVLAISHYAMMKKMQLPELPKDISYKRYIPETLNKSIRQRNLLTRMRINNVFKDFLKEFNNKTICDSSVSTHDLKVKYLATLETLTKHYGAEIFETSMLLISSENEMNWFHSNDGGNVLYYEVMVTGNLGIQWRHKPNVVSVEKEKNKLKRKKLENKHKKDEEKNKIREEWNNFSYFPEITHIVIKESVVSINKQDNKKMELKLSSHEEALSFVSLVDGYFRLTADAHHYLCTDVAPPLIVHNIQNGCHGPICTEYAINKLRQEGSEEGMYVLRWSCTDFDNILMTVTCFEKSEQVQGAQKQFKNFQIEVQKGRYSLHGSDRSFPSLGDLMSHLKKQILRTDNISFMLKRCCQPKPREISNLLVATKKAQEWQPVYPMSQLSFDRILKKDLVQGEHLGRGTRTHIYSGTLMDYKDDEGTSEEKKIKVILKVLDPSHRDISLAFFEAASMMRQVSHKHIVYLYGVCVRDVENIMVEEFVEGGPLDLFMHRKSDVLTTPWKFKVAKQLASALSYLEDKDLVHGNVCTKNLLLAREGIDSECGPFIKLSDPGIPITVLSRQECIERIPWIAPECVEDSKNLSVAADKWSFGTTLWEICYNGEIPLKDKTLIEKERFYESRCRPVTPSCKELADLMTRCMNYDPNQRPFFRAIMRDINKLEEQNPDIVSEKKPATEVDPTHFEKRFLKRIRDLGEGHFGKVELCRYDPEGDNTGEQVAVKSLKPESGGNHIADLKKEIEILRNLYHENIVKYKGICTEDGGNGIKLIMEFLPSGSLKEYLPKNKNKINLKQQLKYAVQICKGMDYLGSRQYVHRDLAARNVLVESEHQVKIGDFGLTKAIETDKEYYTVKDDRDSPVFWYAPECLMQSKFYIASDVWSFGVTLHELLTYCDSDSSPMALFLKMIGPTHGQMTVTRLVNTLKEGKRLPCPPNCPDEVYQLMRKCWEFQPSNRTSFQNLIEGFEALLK

| SMILES | IC50 [1] | IC50 [2] | IC50 [3] | IC50 [4] | clearance [6] | Vd [7] | half-life [8] | AUC [9] | AUC [10] | Tmax [11] | Cmax [12] | bioavailability [13] | GI50 [5] |
| --- | --- | --- | --- | --- | --- | --- | --- | --- | --- | --- | --- | --- | --- |
| CN(C)C(=O)c1ccc(Nc2nc3cccc(-c4ccc(C(=O)N5CCOCC5)cc4)c3o2)cc1 | 39 nM | 180 nM | 620 nM | 730 nM |  |  |  |  |  |  |  |  |  |
| COc1cc(Nc2nc3cccc(-c4ccc5ncccc5c4)c3o2)cc(OC)c1OC | 8 nM | 210 nM | 670 nM | 1400 nM |  |  |  |  |  |  |  |  | 500 nM |
| COc1cc(Nc2nc3cccc(-c4cccc(NS(C)(=O)=O)c4)c3o2)cc(OC)c1OC | 150 nM | 680 nM | 2000 nM | 3600 nM |  |  |  |  |  |  |  |  |  |
| Cc1cc(-c2cccc3nc(Nc4ccc(N5CCN(C)CC5)cc4)oc23)ccc1C(=O)N1CCOCC1 | 8 nM | 67 nM | 170 nM | 300 nM |  |  |  |  |  |  |  |  | 200 nM |
| COc1cc(Nc2nc3cccc(-c4cccc(Cl)c4)c3o2)cc(OC)c1OC | 440 nM | 5300 nM | > 10000 nM | > 10000 nM |  |  |  |  |  |  |  |  |  |
| CNC(=O)c1ccc(Nc2nc3cccc(-c4cc(F)c(CN5CCOCC5)c(F)c4)c3o2)cc1C | 5 nM | 48 nM | 190 nM | 120 nM | 15 mL/min/kg | 2.3 L/kg | 3.2 h | 2.391 µM·h | 2.435 µM·h | 3.5 h | 242 nM | 102% | 260 nM |
| COc1cc(Nc2nc3cccc(-c4ccccc4)c3o2)cc(OC)c1OC |  | 710 nM | > 10000 nM | 3400 nM |  |  |  |  |  |  |  |  |  |
| COc1cc(Nc2nc3cccc(-c4ccc(NS(C)(=O)=O)cc4)c3o2)cc(OC)c1OC | 5 nM | 47 nM | 130 nM | 150 nM |  |  |  |  |  |  |  |  | 130 nM |
| Cc1cc(Nc2nc3cccc(-c4ccc(C(=O)N5CCOCC5)cc4)c3o2)ccc1C(=O)N(C)C | 8 nM | 130 nM |  |  |  |  |  |  |  |  |  |  | 490 nM |
| COc1ccc(-c2cccc3nc(Nc4cc(OC)c(OC)c(OC)c4)oc23)cc1 |  | 8900 nM | > 10000 nM | > 10000 nM |  |  |  |  |  |  |  |  |  |

More lines, main results first:

| IC50 [1] | IC50 [2] | IC50 [3] | IC50 [4] | clearance [6] | Vd [7] | half-life [8] | AUC [9] | AUC [10] | Tmax [11] | Cmax [12] | bioavailability [13] | SMILES | GI50 [5] |
| --- | --- | --- | --- | --- | --- | --- | --- | --- | --- | --- | --- | --- | --- |
| 5 nM | 140 nM | 160 nM | 200 nM |  |  |  |  |  |  |  |  | Cc1cc(Nc2nc3cccc(-c4cc(F)c(CN5CCOCC5)c(F)c4)c3o2)ccc1C(=O)N(C)C | 200 nM |
|  | 82 nM | 300 nM | 310 nM |  |  |  |  |  |  |  |  | COc1cc(Nc2nc3cccc(-c4ccc(CN5CCOCC5)cc4)c3o2)cc(OC)c1OC | 420 nM |
| < 3 nM | 22 nM |  | 63 nM |  |  |  |  |  |  |  |  | COc1cc(Nc2nc3cccc(-c4ccc(C(=O)N5CCOCC5)c(F)c4)c3o2)cc(OC)c1OC | 150 nM |
| 8 nM | 27.5 nM | 400 nM | 110 nM |  |  |  |  |  |  |  |  | COc1cc(Nc2nc3cccc(-c4ccc(C(=O)N5CCOCC5)cc4)c3o2)cc(OC)c1OC | 160 nM |
| 5 nM | 35 nM | 220 nM | 97 nM |  |  |  |  |  |  |  |  | Cc1cc(Nc2nc3cccc(-c4cc(F)c(CN5CCOCC5)c(F)c4)c3o2)ccc1C(=O)NCCCN(C)C | 410 nM |
| 110 nM | 760 nM | 450 nM | 640 nM |  |  |  |  |  |  |  |  | COc1cc(Nc2nc3cccc(-c4ccccn4)c3o2)cc(OC)c1OC |  |
